Test results taken from BindingDB's records for doi:10.1021/acs.jmedchem.0c00870 (Tu Dortmund University, 2020).

Legend:
[1] = Inhibiton of EGFR (unknown origin) expressed in human A431 cells assessed as reduction in EGFR induced cell viability after 96 hrs by CellTiter-Glo assay
[2] = Inhibiton of EGFR L858R/T790M mutant (unknown origin) expressed in human NCI-H1975 cells assessed as reduction in EGFR induced cell viability after 96 hrs by CellTiter-Glo assay

Work on `C=CC(=O)Nc1cccc(-c2c[nH]c3ncnc(Nc4ccc(CN5C(=O)c6ccccc6C5=O)cc4)c23)c1` yielded an IC50 [1] of 1.57 µM and an IC50 [2] of 2.66 µM.

Work on `C=CC(=O)Nc1cc(-c2c[nH]c3ncnc(Nc4ccc(OCc5ccccn5)c(Cl)c4)c23)ccc1OCCN(C)C` yielded an IC50 [1] of 0.862 µM and an IC50 [2] of 0.807 µM.

Work on `C=CC(=O)Nc1cccc(-c2c[nH]c3ncnc(Nc4ccc(OCc5ccccn5)c(Cl)c4)c23)c1` yielded an IC50 [1] of 1.68 µM and an IC50 [2] of 0.739 µM.

With `C=CC(=O)Nc1cc(-c2c[nH]c3ncnc(Nc4ccc5c(cnn5Cc5ccccc5)c4)c23)ccc1OCCO` the IC50 [1] was 2.24 µM.
